Results: US20260207600A1, “METHODS OF TREATMENT WITH MYOSIN MODULATOR” (MYOKARDIA, INC., priority 2019, published 2026)
Several values for one entry are separate records, joined by “and”; a condition that tells them apart may be missing. Identical values can stand only once.

Assays:
[1] = molecular target: CYP2C19 (Homo sapiens, UniProt P33261); experiment: In vitro contribution of CYP enzymes to mavacamten metabolism; type: in vitro ADME
[2] = tested on: individuals with symptomatic obstructive hypertrophic cardiomyopathy (oHCM); experiment: PIONEER-OLE Phase 2 open-label extension study of mavacamten; type: in vivo
Protocol: All subjects were started on a dose of 5 mg QD.
To maximize safety, the starting dose will be 5 mg for all subjects. Subjects will return at Week 4 (±4 days) for a plasma PK sample to measure drug levels and to undergo echocardiography to determine LVOT gradient (at rest, after a Valsalva maneuver, and after exercise) and left ventricular ejection fraction (LVEF).
After Week 6, additional study visits will occur at Week 8 (±7 days), Week 12 (±7 days), and every 12 weeks (±7 days) thereafter. Subjects also will be contacted by phone in between clinic visits, at Week 18 and every 12 weeks thereafter. An end of study (EOS) visit will occur 12 weeks (±7 days) after the last administration of study drug. Visits (including the Screening visit which serves as the baseline) will entail recording vital signs, targeted physical examination, ECGs, safety laboratory tests, N-terminal pro b-type natriuretic peptide (NT-proBNP), adverse events (AEs), New York Heart Association (NYHA) functional class, Kansas City Cardiomyopathy Questionnaire (KCCQ) score, and concomitant medications. At Weeks 4, 8, 24, 36, 48, 60, 72, 96, 120, 144, 156/early termination (ET), and 168/EOS, a predose blood sample for assessment of drug concentration will be obtained. A standard TTE (including but not limited to assessment of LVOT gradient at rest and after Valsalva) will be performed at baseline, at Weeks 4, 8, 12, 24, 36, 48, 72, 96, 120, 144, 156/ET, and 168/EOS. In addition, a stress echocardiogram (with assessment of LVOT gradient post-exercise) will also be performed at baseline, Weeks 4, 48, 72, 156/ET, and 168/EOS.
The study endpoints include safety, tolerability, and select measures of efficacy using individualized dosing. Key measurements include LVOT gradient, LVEF, NT-proBNP.
• 1. Frequency and severity of treatment-emergent AEs and SAEs, • 2. Frequency of cardiovascular (CV) death, • 3. Frequency of sudden death, • 4. Frequency of CV hospitalization, • 5. Frequency of heart failure requiring the initiation of oral loop diuretics or the administration of intravenous loop diuretics, • 6. Frequency of myocardial infarction, • 7. Frequency of ventricular arrhythmias (ventricular tachycardia, ventricular fibrillation, ventricular flutter, torsade de pointe), • 8. Frequency of syncope, • 9. Frequency of seizures, • 10. Frequency of stroke, • 11. Frequency of LVEF≤45% as measured by echocardiography, • 12. QT and QTcF intervals over time.
• 1. Post-exercise, post-Valsalva, and resting LVOT gradient over time, • 2. NYHA functional class over time, • 3. KCCQ scores over time, • 4. NT-proBNP over time, • 5. Frequency of septal reduction therapy.

[3] = Stable form analysis (slurry experiments, XRPD); type: physicochemical; conditions: for XRPD Result (stable form screening): Lot 2-4
Protocol: Slurrying. Slurries of the API were prepared by adding sufficient solids to a given solvent or solvent system at ambient conditions or at elevated temperature such that undissolved solids were present. The mixtures were then agitated in a closed vial at ambient or elevated temperature for an extended period of time. Solids were collected by vacuum filtration and analyzed.
A stable form analysis of the API (Lot 2-4) was performed to identify the preferred solid form within typical process conditions (e.g., ambient to 85° C., atmospheric pressure, with a variety of solvents including water).
A total of 17 slurries were held stirring at ambient temperature or with temperature cycling between 20 and 30 or 40° C. (with a few brief exposures to approximately 46° C.) for extended time periods (Table 13.4). Solids from the slurry experiments were filtered, air-dried, then analyzed by XRPD.

[4] = Change from Baseline to Week 48

CYP2C19, sequence (P33261 whole entry): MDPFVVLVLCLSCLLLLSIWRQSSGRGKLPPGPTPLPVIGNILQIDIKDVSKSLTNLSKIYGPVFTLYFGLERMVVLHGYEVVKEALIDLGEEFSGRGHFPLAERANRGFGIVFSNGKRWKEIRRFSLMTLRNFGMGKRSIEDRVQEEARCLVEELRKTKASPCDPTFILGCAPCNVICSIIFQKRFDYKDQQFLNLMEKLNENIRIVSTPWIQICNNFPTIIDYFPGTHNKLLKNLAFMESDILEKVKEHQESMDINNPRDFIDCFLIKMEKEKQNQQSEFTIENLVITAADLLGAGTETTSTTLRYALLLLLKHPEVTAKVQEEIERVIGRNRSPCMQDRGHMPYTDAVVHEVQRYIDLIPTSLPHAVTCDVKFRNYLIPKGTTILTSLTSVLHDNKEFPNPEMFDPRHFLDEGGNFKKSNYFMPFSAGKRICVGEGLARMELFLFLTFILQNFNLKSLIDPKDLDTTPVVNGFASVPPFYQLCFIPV

CC(C)n1c(=O)cc(N[C@@H](C)c2ccccc2)[nH]c1=O [mavacamten, (S)-3-Isopropyl-6-((1-phenylethyl)amino)pyrimidine-2, 4(1H,3H)-dione]
percent contribution to the metabolism of mavacamten [1]: 74%
Cardiac-related adverse events (AEs) attributed to study drug ([2]; 48-week period): no cardiac-related adverse events
E/e′ lateral [2, 4]: −3.4
NT-proBNP, median [2, 4]: -472 pg/mL
e′lat, mean ± SD [2, 4]: 1.6 cm/s and 1.6 ± 1.1 cm/s
IVS ([2]; Change from Baseline to Week 48, Table 1.1): −1.5 mm
E/e′ lateral ([2]; Week 12): 9.8
Interventricular septal thickness, Change from baseline, mean ± SD ([2]; Week 12): −0.7 ± 0.7 mm
Interventricular septal thickness, Mean ± SD ([2]; Week 12): 15.9 ± 2.7 mm
LV maximum wall thickness, Change from baseline, mean ± SD ([2]; Week 12): −0.8 ± 2.0 mm
LV maximum wall thickness, Mean ± SD ([2]; Week 12): 20.1 ± 2.5 mm
LV posterior wall thickness, Change from baseline, mean ± SD ([2]; Week 12): 0.2 ± 0.8 mm
LV posterior wall thickness, Mean ± SD ([2]; Week 12): 11.9 ± 2.2 mm
NT-proBNP, median ([2]; Week 12): 99 pg/mL
Systolic anterior motion of the mitral valve present, % ([2]; Week 12): (46.2) %
e′lat, mean ± SD ([2]; Week 12): 8.4 ± 2.3 cm/s
IVS ([2]; Week 12, Table 1.1): 16.0 mm
E/e′ lateral ([2]; Week 24): 10.2
Interventricular septal thickness, Change from baseline, mean ± SD ([2]; Week 24): −0.7 ± 1.1 mm
Interventricular septal thickness, Mean ± SD ([2]; Week 24): 15.8 ± 2.7 mm
LV maximum wall thickness, Change from baseline, mean ± SD ([2]; Week 24): −1.8 ± 1.8 mm
LV maximum wall thickness, Mean ± SD ([2]; Week 24): 19.1 ± 2.4 mm
LV posterior wall thickness, Change from baseline, mean ± SD ([2]; Week 24): 0.2 ± 0.9 mm
LV posterior wall thickness, Mean ± SD ([2]; Week 24): 11.8 ± 2.0 mm
NT-proBNP, median ([2]; Week 24): 93 pg/mL
Systolic anterior motion of the mitral valve present, % ([2]; Week 24): (46.2) %
e′lat, mean ± SD ([2]; Week 24): 7.9 ± 2.2 cm/s
IVS ([2]; Week 24, Table 1.1): 15.8 mm
E/e′ lateral ([2]; Week 36): 8.5
Interventricular septal thickness, Change from baseline, mean ± SD ([2]; Week 36): −1.2 ± 1.7 mm
Interventricular septal thickness, Mean ± SD ([2]; Week 36): 15.4 ± 2.7 mm
LV maximum wall thickness, Change from baseline, mean ± SD ([2]; Week 36): −1.8 ± 1.9 mm
LV maximum wall thickness, Mean ± SD ([2]; Week 36): 19.0 ± 2.2 mm
LV posterior wall thickness, Change from baseline, mean ± SD ([2]; Week 36): 0.0 ± 1.5 mm
LV posterior wall thickness, Mean ± SD ([2]; Week 36): 11.7 ± 1.7 mm
NT-proBNP, median ([2]; Week 36): 168 pg/mL
Systolic anterior motion of the mitral valve present, % ([2]; Week 36): (58.3) %
e′lat, mean ± SD ([2]; Week 36): 8.7 ± 2.8 cm/s
IVS ([2]; Week 36, Table 1.1): 15.4 mm
E/e′ lateral ([2]; Week 48): 9.1
Interventricular septal thickness, Change from baseline, mean ± SD ([2]; Week 48): −1.2 ± 2.3 mm
Interventricular septal thickness, Mean ± SD ([2]; Week 48): 15.5 ± 2.0 mm
LV maximum wall thickness, Change from baseline, mean ± SD ([2]; Week 48): −1.4 ± 2.2 mm
LV maximum wall thickness, Mean ± SD ([2]; Week 48): 19.4 ± 2.7 mm
LV posterior wall thickness, Change from baseline, mean ± SD ([2]; Week 48): −0.5 ± 1.9 mm
LV posterior wall thickness, Mean ± SD ([2]; Week 48): 11.1 ± 1.9 mm
NT-proBNP, median ([2]; Week 48): 137 pg/mL
Systolic anterior motion of the mitral valve present, % ([2]; Week 48): (33.3) %
Valsalva LVOT gradient, mean change ([2]; Week 48): −66.0 mm Hg
e′lat, mean ± SD ([2]; Week 48): 8.0 ± 1.6 cm/s
mean resting LVOT gradient ([2]; Week 48): 14.0 mm Hg
patients achieving a post-exercise LVOT gradient<30 mm Hg ([2]; Week 48): Five
post-exercise LVOT gradient, mean change ([2]; Week 48): −85.1 mm Hg
resting LVOT gradient for all subjects ([2]; Week 48): below 50 mmHg
subjects achieving asymptomatic status (NYHA Class I) ([2]; Week 48): nine out of twelve
subjects with resting LVOT gradient below the 30 mmHg threshold ([2]; Week 48): 11 of 12
IVS ([2]; Week 48, Table 1.1): 15 mm and 15.3 mm
Interventricular septal thickness, Change from baseline, mean ± SD ([2]; Week 48, listed as Mavacamten): −1.2 mm
LV maximum wall thickness, Change from baseline, mean ± SD ([2]; Week 48, listed as Mavacamten): −1.4 mm
KCCQ mean score ([2]; Week 48, scores range 0-100): 87.3
LVEF for all patients ([2]; all timepoints throughout the study): above 50%
resting LVOT gradient, mean change ([2]; baseline to Week 48): −52.7 mm Hg
Number of AEs considered potentially related to study drug ([2]; in 3 subjects): 8
number of SAEs ([2]; in 3 subjects, not cardiovascular, not related to study drug): 4
Number of AEs ([2]; most mild or moderate, and transient): 64
Tolerability ([2]; one-year treatment period): well tolerated
solid form obtained from slurry experiments (XRPD) ([3]; 17 slurries, ambient temperature or cycling between 20 and 30 or 40° C., extended time): All slurry experiments yielded Form A, except one with chloroform
XRPD Result (stable form screening) ([3]; Anisole, Slurry, ~50° C., 4 d): Form A
XRPD Result (stable form screening) ([3]; CHCl3, TC, 20 to 30° C., 10 d): Form A +
XRPD Result (stable form screening) ([3]; DCM, Slurry, RT, 17 d): Form A
XRPD Result (stable form screening) ([3]; DMF:CHCl3 (20:80), Slurry, RT, 17 d): Form A
XRPD Result (stable form screening) ([3]; DMF:EtOH (20:80), Slurry, RT, 17 d): Form A
XRPD Result (stable form screening) ([3]; DMSO:water (90:10), Slurry, RT, 3 d, TC, 20 to 30° C., 10 d): Form A
XRPD Result (stable form screening) ([3]; EtOAc, TC 20 to 40° C., 10 d): Form A
XRPD Result (stable form screening) ([3]; EtOH, TC 20 to 40° C., 10 d): Form A
XRPD Result (stable form screening) ([3]; HFIPA:acetone (10:90), Slurry, RT, 17 d): Form A
XRPD Result (stable form screening) ([3]; MIBK, Slurry, ~80° C., 1 d): Form A
XRPD Result (stable form screening) ([3]; MeOH, Slurry, RT, 3 d, TC, 20 to 30° C., 10 d): Form A
XRPD Result (stable form screening) ([3]; NMP:MeOH (10:90), Slurry, RT, 17 d): Form A
XRPD Result (stable form screening) ([3]; NMP:toluene (80:20), Slurry, RT, 17 d): Form A
XRPD Result (stable form screening) ([3]; NMP:water (50:50), Slurry, RT, 17 d): Form A
XRPD Result (stable form screening) ([3]; THF:water (75:25), TC, 20 to 30° C., 10 d): Form A
XRPD Result (stable form screening) ([3]; THF, Slurry, RT, 3 d, TC, 20 to 40° C., 10 d): Form A
XRPD Result (stable form screening) ([3]; iPrOH, TC, 20 to 40° C., 10 d): Form A
